Experimental data as given in ChEMBL document CHEMBL1126024, “Di- and triester prodrugs of the varicella-zoster antiviral agent 6-methoxypurine arabinoside” (J Med Chem, 1992).
Values after ≈ are worked out from the molar mass of the structure shown.

Legend:
Rattus norvegicus [1] = species on record: Rattus norvegicus; assay: (§1) Ester prodrugs: recovery of parent compound in rat urine; format: ADME, organism-based; details: in vivo
[2] = Solubility (phosphate buffered saline); format: physicochemical; details: read-out: S
[3] = Ester prodrugs: stability in buffer (pH 7); format: physicochemical
Rattus norvegicus [4] = species on record: Rattus norvegicus; assay: as §1; format: ADME, organism-based; details: in vivo; remark: listed apart in the source

SMILES | Urinary recovery (Rattus norvegicus [1]) [%] | solubility [2] [µM] | T1/2 [3] [days] | Urinary recovery (Rattus norvegicus [4]) [%]
COc1ncnc2c1ncn2[C@@H]1O[C@H](COC(=O)COc2ccccc2)[C@@H](OC(=O)COc2ccccc2)[C@@H]1OC(=O)COc1ccccc1 | 4.6 | 22 (≈ 15.1 µg/mL) |  | 
CCCC(=O)OC[C@H]1O[C@@H](n2cnc3c(OC)ncnc32)[C@@H](OC(=O)CCC)[C@@H]1OC(=O)CCC | 0.7 | 102 (≈ 50.2 µg/mL) |  | 
COc1ncnc2c1ncn2[C@@H]1O[C@H](COC(=O)C(C)C)[C@@H](OC(=O)C(C)C)[C@@H]1O | 17.7 | 428 (≈ 181 µg/mL) | 19.5 | 
COc1ncnc2c1ncn2[C@@H]1O[C@H](COC(=O)c2ccc(Cl)cc2)[C@@H](OC(=O)c2ccc(Cl)cc2)[C@@H]1OC(=O)c1ccc(Cl)cc1 | 4.5 | < 5 |  | 
COc1ncnc2c1ncn2[C@@H]1O[C@H](COC(=O)c2ccccc2)[C@@H](O)[C@@H]1OC(=O)c1ccccc1 | 5.8 | < 5 |  | 
COc1ccc(C(=O)OC[C@H]2O[C@@H](n3cnc4c(OC)ncnc43)[C@@H](OC(=O)c3ccc(OC)cc3)[C@@H]2OC(=O)c2ccc(OC)cc2)cc1 | 4.1 | < 5 |  | 
COc1ncnc2c1ncn2[C@@H]1O[C@H](CO)[C@@H](OC(C)=O)[C@@H]1OC(C)=O | 19.2 | 172000 (≈ 63000 µg/mL) | 19.1 | 
COc1ncnc2c1ncn2[C@@H]1O[C@H](CO)[C@@H](OC(=O)Cc2ccccc2)[C@@H]1OC(=O)Cc1ccccc1 | 2.7 | 204 (≈ 106 µg/mL) |  | 
COc1ncnc2c1ncn2[C@@H]1O[C@H](COC(=O)C(C)C)[C@@H](OC(=O)C(C)C)[C@@H]1OC(=O)C(C)C | 2.1 | 141 (≈ 69.4 µg/mL) |  | 
COc1ncnc2c1ncn2[C@@H]1O[C@H](CO)[C@@H](OC(=O)COc2ccccc2)[C@@H]1OC(=O)COc1ccccc1 | 7.6 | 67 (≈ 36.9 µg/mL) |  | 
COc1ncnc2c1ncn2[C@@H]1O[C@H](CO)[C@@H](O)[C@@H]1O | 3.8 | 49800 (≈ 14100 µg/mL) |  | 25.9
CCCCC(=O)OC[C@H]1O[C@@H](n2cnc3c(OC)ncnc32)[C@@H](OC(=O)CCCC)[C@@H]1O | 15.3 | 1300 (≈ 586 µg/mL) | 51.6 | 
COc1ccc(C(=O)OC[C@H]2O[C@@H](n3cnc4c(OC)ncnc43)[C@@H](OC(=O)c3ccc(OC)cc3)[C@@H]2O)cc1 | 0.2 | 6 (≈ 3.3 µg/mL) |  | 
CCC(=O)OC[C@H]1O[C@@H](n2cnc3c(OC)ncnc32)[C@@H](O)[C@@H]1OC(=O)CC | 11 | 2390 (≈ 943 µg/mL) | 30.2 | 
COc1ncnc2c1ncn2[C@@H]1O[C@H](COS(C)(=O)=O)[C@@H](OS(C)(=O)=O)[C@@H]1OS(C)(=O)=O | 4.4 | 3220 (≈ 1660 µg/mL) | > 70 | 
CCCCC(=O)OC[C@H]1O[C@@H](n2cnc3c(OC)ncnc32)[C@@H](O)[C@@H]1OC(=O)CCCC | 12.8 | 78 (≈ 35.1 µg/mL) |  | 
COc1ncnc2c1ncn2[C@@H]1O[C@H](CO)[C@@H](OC(=O)C(C)C)[C@@H]1OC(=O)C(C)C | 2.3 | 3300 (≈ 1390 µg/mL) | 28.9 | 
COc1ncnc2c1ncn2[C@@H]1O[C@H](COC(=O)c2ccccc2)C(OC(=O)c2ccccc2)[C@@H]1O (single isomer, unassigned) | 4.3 | 33 (≈ 16.2 µg/mL) |  | 
COc1ncnc2c1ncn2[C@@H]1O[C@H](COC(=O)C(C)(C)C)[C@@H](O)[C@@H]1OC(=O)C(C)(C)C | 15.7 | 1350 (≈ 608 µg/mL) | 178 | 
COc1ncnc2c1ncn2[C@@H]1O[C@H](COC(=O)COc2ccccc2)[C@@H](OC(=O)COc2ccccc2)[C@@H]1O | 3.8 | 58 (≈ 31.9 µg/mL) |  | 
CCC(=O)OC[C@H]1O[C@@H](n2cnc3c(OC)ncnc32)[C@@H](OC(=O)CC)[C@@H]1OC(=O)CC | 0.8 | 3550 (≈ 1600 µg/mL) | 127 | 
CCCCCCCC(=O)O[C@H]1[C@H](OC(=O)CCCCCCC)[C@@H](CO)O[C@H]1n1cnc2c(OC)ncnc21 | 12.6 | 36 (≈ 19.2 µg/mL) |  | 
CCCCCCC(=O)O[C@H]1[C@H](OC(=O)CCCCCC)[C@@H](CO)O[C@H]1n1cnc2c(OC)ncnc21 | 10.5 | 30 (≈ 15.2 µg/mL) |  | 

SMILES | Urinary recovery (Rattus norvegicus [1]) [%] | solubility [2] [µM] | T1/2 [3] [days] | Urinary recovery (Rattus norvegicus [4]) [%]
CCC(=O)O[C@H]1[C@H](OC(=O)CC)[C@@H](CO)O[C@H]1n1cnc2c(OC)ncnc21 | 8.7 | 23500 (≈ 9270 µg/mL) | 525 | 
COc1ncnc2c1ncn2[C@@H]1O[C@H](COC(=O)Cc2ccccc2)[C@@H](OC(=O)Cc2ccccc2)[C@@H]1OC(=O)Cc1ccccc1 | 4.1 | < 5 |  | 
COc1ncnc2c1ncn2[C@@H]1O[C@H](COC(=O)Cc2ccccc2)[C@@H](OC(=O)Cc2ccccc2)[C@@H]1O | 1.5 | < 5 |  | 
COc1ncnc2c1ncn2[C@@H]1O[C@H](CO)[C@@H](OC(=O)c2ccc(C)cc2)[C@@H]1OC(=O)c1ccc(C)cc1 | 0.2 | 5 (≈ 2.59 µg/mL) |  | 
COc1ncnc2c1ncn2[C@@H]1O[C@H](COC(=O)c2ccccc2)[C@@H](OC(=O)c2ccccc2)[C@@H]1OC(=O)c1ccccc1 | 0.9 | 8 (≈ 4.76 µg/mL) |  | 
COc1ncnc2c1ncn2[C@@H]1O[C@H](COS(=O)(=O)c2ccc(C)cc2)[C@@H](OS(=O)(=O)c2ccc(C)cc2)[C@@H]1OS(=O)(=O)c1ccc(C)cc1 | 3 | 5 (≈ 3.72 µg/mL) |  | 
COc1ncnc2c1ncn2[C@@H]1O[C@H](COC(C)=O)[C@@H](OC(C)=O)[C@@H]1OC(C)=O | 8.3 | 81800 (≈ 33400 µg/mL) | 15.2 | 
COc1ncnc2c1ncn2[C@@H]1O[C@H](CO)[C@@H](OC(=O)C(C)(C)C)[C@@H]1OC(=O)C(C)(C)C | 1.6 | 640 (≈ 288 µg/mL) | 72.7 | 
COc1ccc(C(=O)O[C@H]2[C@H](OC(=O)c3ccc(OC)cc3)[C@@H](CO)O[C@H]2n2cnc3c(OC)ncnc32)cc1 | 0.2 | 5 (≈ 2.75 µg/mL) |  | 
COc1ccc(C(=O)OC[C@H]2O[C@@H](n3cnc4c(OC)ncnc43)[C@@H](O)C2OC(=O)c2ccc(OC)cc2)cc1 (single isomer, unassigned) | 0.2 | 45 (≈ 24.8 µg/mL) |  | 
CCCCC(=O)O[C@H]1[C@H](OC(=O)CCCC)[C@@H](CO)O[C@H]1n1cnc2c(OC)ncnc21 | 9.1 | 694 (≈ 313 µg/mL) | 7.02 | 
CCCCCC(=O)O[C@H]1[C@H](OC(=O)CCCCC)[C@@H](CO)O[C@H]1n1cnc2c(OC)ncnc21 | 4.8 | 140 (≈ 67 µg/mL) |  | 
COc1ncnc2c1ncn2[C@@H]1O[C@H](COC(C)=O)[C@@H](OC(C)=O)[C@@H]1O | 16.3 | 12300 (≈ 4510 µg/mL) | 30.6 | 
COc1ncnc2c1ncn2[C@@H]1O[C@H](COC(=O)C(C)C)[C@@H](O)[C@@H]1OC(=O)C(C)C | 4.2 | 9110 (≈ 3850 µg/mL) | 53.6 | 
CCCC(=O)OC[C@H]1O[C@@H](n2cnc3c(OC)ncnc32)[C@@H](O)[C@@H]1OC(=O)CCC | 11.8 | 422 (≈ 178 µg/mL) |  | 
COc1ncnc2c1ncn2[C@@H]1O[C@H](CO)[C@@H](OC(=O)c2ccccc2)[C@@H]1OC(=O)c1ccccc1 | 0.1 | 13 (≈ 6.38 µg/mL) |  | 
CCCCC(=O)OC[C@H]1O[C@@H](n2cnc3c(OC)ncnc32)[C@@H](OC(=O)CCCC)[C@@H]1OC(=O)CCCC | 2.2 | 21 (≈ 11.2 µg/mL) |  | 
COc1ncnc2c1ncn2[C@@H]1O[C@H](COC(=O)c2ccc(C)cc2)[C@@H](OC(=O)c2ccc(C)cc2)[C@@H]1OC(=O)c1ccc(C)cc1 | 5.6 | < 5 |  | 
COc1ncnc2c1ncn2[C@@H]1O[C@H](COC(=O)C(C)(C)C)[C@@H](OC(=O)C(C)(C)C)[C@@H]1O | 1.2 | 32 (≈ 14.4 µg/mL) |  | 
COc1ncnc2c1ncn2[C@@H]1O[C@H](COC(C)=O)[C@@H](O)[C@@H]1OC(C)=O | 10.6 | 7100 (≈ 2600 µg/mL) | 22.5 | 
COc1ncnc2c1ncn2[C@@H]1O[C@H](COC(=O)C(C)(C)C)[C@@H](OC(=O)C(C)(C)C)[C@@H]1OC(=O)C(C)(C)C | 5.4 | 14 (≈ 7.48 µg/mL) |  | 
CCCC(=O)O[C@H]1[C@H](OC(=O)CCC)[C@@H](CO)O[C@H]1n1cnc2c(OC)ncnc21 | 4.8 | 9600 (≈ 4060 µg/mL) | 13.1 | 
